Measurements: ChEMBL document CHEMBL1201862, “PubChem BioAssay data set” (2004)
Activity calls are given as the source filed them.

Tests used:
[1] = biological target: Troponin, cardiac muscle (Homo sapiens, UniProt P19429+P45379+P63316); assay: Fluorescence-based biochemical high throughput dose response assay for activators of the calcium sensitivity of cardiac Regulated Thin Filaments (RTF). [Related pubchem assays (depositor defined):AID493008, AID493018, AID504382, AID504383]; format: protein-complex assay
[2] = biological target: T1, Cysteine protease ATG4B (Homo sapiens, UniProt Q9Y4P1); format: functional;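 further: Fluorescence-based dose-response confirmation assay measuring inhibition of ATG4B activity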
T1 sequence (Q9Y4P1 whole entry): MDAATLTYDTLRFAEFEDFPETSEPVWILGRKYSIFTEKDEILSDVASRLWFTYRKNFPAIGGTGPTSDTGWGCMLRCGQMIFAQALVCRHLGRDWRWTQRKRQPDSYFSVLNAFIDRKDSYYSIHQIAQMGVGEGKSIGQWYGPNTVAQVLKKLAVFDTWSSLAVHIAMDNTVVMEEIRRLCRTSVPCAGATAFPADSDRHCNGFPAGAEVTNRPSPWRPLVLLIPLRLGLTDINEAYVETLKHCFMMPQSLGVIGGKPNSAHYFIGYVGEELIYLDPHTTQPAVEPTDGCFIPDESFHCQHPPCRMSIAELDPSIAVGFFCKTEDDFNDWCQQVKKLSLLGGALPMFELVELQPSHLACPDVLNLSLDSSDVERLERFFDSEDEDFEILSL

[3] = biological target: T2, Microphthalmia-associated transcription factor (Homo sapiens, UniProt O75030); assay: TRPM1 promoter luciferase signal decrease, dose response, MITF inhibitor project, cell-based, SK-MEL-5, cherry-picked, set 3 (AID 493073); format: functional
T2 sequence (O75030 whole entry): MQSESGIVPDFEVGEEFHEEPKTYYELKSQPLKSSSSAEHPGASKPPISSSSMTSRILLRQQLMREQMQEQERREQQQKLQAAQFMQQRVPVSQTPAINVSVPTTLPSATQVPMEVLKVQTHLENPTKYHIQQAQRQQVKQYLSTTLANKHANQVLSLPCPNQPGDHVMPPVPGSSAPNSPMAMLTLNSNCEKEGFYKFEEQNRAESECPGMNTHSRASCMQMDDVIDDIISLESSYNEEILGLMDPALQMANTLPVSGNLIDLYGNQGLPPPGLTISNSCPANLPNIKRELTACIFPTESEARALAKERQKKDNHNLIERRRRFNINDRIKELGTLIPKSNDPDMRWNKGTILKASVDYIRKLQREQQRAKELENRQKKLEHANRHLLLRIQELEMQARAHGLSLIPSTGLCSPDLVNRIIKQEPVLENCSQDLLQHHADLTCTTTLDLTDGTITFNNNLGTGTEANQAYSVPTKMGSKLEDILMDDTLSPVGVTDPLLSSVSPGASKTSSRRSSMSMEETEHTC

[4] = biological target: Phospholipase A2 (Homo sapiens, UniProt P04054); format: functional;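 further: confirmatory dose-response counterscreen on phospholipase A2, testing hits that came from an ultra-high-throughput screen for ATG4B inhibitors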
[5] = system: A-375; assay: MITF: Counter assay: A375 proliferation Measured in Cell-Based System Using Plate Reader - 2084-03_Inhibitor_Dose_DryPowder_Activity. [Related pubchem assays (depositor defined):AID488944]; format: functional; settings: Homo sapiens
[6] = system: A-375; assay: A375 melanoma cell viability reduction, dose response, counter-screen for MITF modulator project, cherry-pick samples, set 2 (AID 540335); format: functional, cell-based; settings: Homo sapiens
[7] = system: Jurkat; assay: antigen receptor-induced NF-kB inhibitors, dose response, Jurkat, luciferase reporter, luminescence, B- and T-cell (AID 489004); format: functional, cell-based; settings: Homo sapiens;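 further: NF-kB luciferase reporter Jurkat cells stimulated with PMA plus ionomycin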
[8] = cytotoxicity in HEK-293T NF-kB-Luc cells, dose response, cytotoxicity control for B/T-cell NF-kB inhibitor project, cell-based, uHTS hits (AID 489019); format: functional;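 further: IC50 reflects cytotoxicity as loss of cell viability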
[9] = biological target: Potassium voltage-gated channel subfamily KQT member 2 (Rattus norvegicus, UniProt O88943); assay: KCNQ2 channel activators, analog series, SAR follow-up, automated patch clamp, KCNQ2-CHO cells (AID 493113); format: functional
[10] = cytotoxicity in HEK-293T cells, dose response, cytotoxicity control for BCR NF-kB inhibitor project, luminescence, B-cell screen hits (AID 489021); format: functional, cell-based;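 further: HEK-293T cells carrying an NF-kB luciferase reporter; cells exposed to compound for about 14 hours before viability readout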
[11] = system: Jurkat; assay: SAR Analysis of small molecule inhibitors of […] specific antigen receptor-induced NF-kB activation in a Jurkat cell line using a luminescence assay - Set 3. [Related pubchem assays (depositor defined):AID435022, AID435025, AID465]; format: functional, cell-based; settings: Homo sapiens
[12] = system: HEK293; assay: SAR Analysis of small molecule inhibitors of B-cell specific antigen receptor-induced NF-kB activation in a HEK-293T cell line using a luminescence assay - Set 2. [Related pubchem assays (depositor defined):AID435022, AID435025, AID489021]; format: functional, cell-based; settings: Homo sapiens
[13] = system: HEK293; assay: cytotoxicity in HEK293T NF-kB-Luc cells, SAR follow-up, cytotoxicity control for NF-kB activator project, cell-based, resazurin fluorescence (AID 493251); format: functional; settings: Homo sapiens, HEK293
[14] = biological target: Voltage-dependent T-type calcium channel subunit alpha-1H (Homo sapiens, UniProt O95180); assay: Cav3.2 T-type channel blockers, cell-based, SynthLib3 library, HEK293 Cav3.2, fluorescence (AID 493041); format: functional
[15] = system: HEK293; assay: cells; settings: Homo sapiens
[16] = system: HEK293; assay: cells; settings: Homo sapiens; remark: listed apart in the source
[17] = inhibitors of intracellular T. cruzi replication, confirmation, NIH3T3 host cells, beta-gal luminescence (AID 2044); format: functional, cell-based;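 further: intracellular parasites grown in NIH/3T3 mouse fibroblasts as host cells; luminescent beta-galactosidase reporter signal from transgenic T. cruzi replicating inside host cells; inhibitors lower the luminescence signal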
[18] = cytotoxicity toward NIH3T3 fibroblasts, dose response, counter-screen, cell-based, ATP luminescence, mouse fibroblasts (AID 2010); format: functional;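 further: cells exposed to compound for about 90 hours before reading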
[19] = biological target: Beta-galactosidase (Escherichia coli, UniProt Q8VNN2); assay: beta-galactosidase enzyme inhibitors and activators, dose response, artefact control for CCR6 antagonist project, biochemical, E. coli enzyme, set 3 (AID 504712); format: functional
[20] = biological target: Apelin receptor (Homo sapiens, UniProt P35414); assay: APJ beta-arrestin recruitment antagonism, SAR follow-up, selectivity assay for CCR6 antagonist project, cell-based, luminescent, enzyme-fragment complementation (AID 588359); format: functional
[21] = biological target: T3, Calpain-2 catalytic subunit (Sus scrofa, UniProt P43367); assay: pig calpain II inhibitor potency, dose response, biochemical, fluorogenic peptide substrate (AID 1420); format: functional
T3 sequence (P43367 whole entry): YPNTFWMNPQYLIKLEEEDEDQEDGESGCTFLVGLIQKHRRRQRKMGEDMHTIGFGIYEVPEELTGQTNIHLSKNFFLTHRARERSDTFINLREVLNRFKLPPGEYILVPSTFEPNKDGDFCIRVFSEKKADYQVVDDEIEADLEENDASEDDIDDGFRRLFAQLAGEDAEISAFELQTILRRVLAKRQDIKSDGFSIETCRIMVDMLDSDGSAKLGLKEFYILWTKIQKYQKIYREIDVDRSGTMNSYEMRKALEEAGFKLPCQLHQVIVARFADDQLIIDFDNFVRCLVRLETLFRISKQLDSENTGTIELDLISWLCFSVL

[22] = biological target: Intestinal-type alkaline phosphatase (Mus musculus, UniProt P24822); assay: PubChem AID 488785; format: functional
[23] = biological target: T4, Alkaline phosphatase, tissue-nonspecific isozyme (Homo sapiens, UniProt P05186); assay: TNAP enzyme inhibition by screening hits, dose response, selectivity assay for mouse IAP inhibitor project, biochemical, human TNAP, uHTS hits (AID 488906); format: functional
T4 sequence (P05186 whole entry): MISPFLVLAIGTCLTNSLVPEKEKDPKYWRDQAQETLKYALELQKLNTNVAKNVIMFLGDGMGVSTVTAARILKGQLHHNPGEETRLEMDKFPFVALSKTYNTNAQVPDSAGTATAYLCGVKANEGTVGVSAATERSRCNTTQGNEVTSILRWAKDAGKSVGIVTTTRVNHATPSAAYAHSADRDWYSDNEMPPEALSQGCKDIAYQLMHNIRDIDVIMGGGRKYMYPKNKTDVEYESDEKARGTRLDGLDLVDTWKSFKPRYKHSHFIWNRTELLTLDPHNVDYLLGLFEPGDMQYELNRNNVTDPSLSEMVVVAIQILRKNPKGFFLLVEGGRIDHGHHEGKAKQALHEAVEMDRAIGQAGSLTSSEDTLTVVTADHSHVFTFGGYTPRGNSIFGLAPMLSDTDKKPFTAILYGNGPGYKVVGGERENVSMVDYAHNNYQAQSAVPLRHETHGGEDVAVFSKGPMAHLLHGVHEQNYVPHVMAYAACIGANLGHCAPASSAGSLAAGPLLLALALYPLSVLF

[24] = biological target: Intestinal-type alkaline phosphatase (Homo sapiens, UniProt P09923); assay: inhibition of human intestinal alkaline phosphatase – biochemical, dose response (AID 488876); format: functional
[25] = Luminescence Cell-Based Dose Retest to Confirm Inhibitors of Cancer Stem Cells. [Related pubchem assays (depositor defined):AID2717, AID2721]; format: functional; settings: Homo sapiens
[26] = cytotoxicity in HMLE control line with eGFP shRNA, dose response, counter-screen for HMLE_sh_ECad selective toxicity project, cell-based, HMLE_sh_eGFP, luminescence (AID 463074); format: functional, Homo sapiens;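 further: HMLE human mammary epithelial cells expressing control shRNA against eGFP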

Sequence of Beta-galactosidase (Q8VNN2 whole entry, the tested form may be a part): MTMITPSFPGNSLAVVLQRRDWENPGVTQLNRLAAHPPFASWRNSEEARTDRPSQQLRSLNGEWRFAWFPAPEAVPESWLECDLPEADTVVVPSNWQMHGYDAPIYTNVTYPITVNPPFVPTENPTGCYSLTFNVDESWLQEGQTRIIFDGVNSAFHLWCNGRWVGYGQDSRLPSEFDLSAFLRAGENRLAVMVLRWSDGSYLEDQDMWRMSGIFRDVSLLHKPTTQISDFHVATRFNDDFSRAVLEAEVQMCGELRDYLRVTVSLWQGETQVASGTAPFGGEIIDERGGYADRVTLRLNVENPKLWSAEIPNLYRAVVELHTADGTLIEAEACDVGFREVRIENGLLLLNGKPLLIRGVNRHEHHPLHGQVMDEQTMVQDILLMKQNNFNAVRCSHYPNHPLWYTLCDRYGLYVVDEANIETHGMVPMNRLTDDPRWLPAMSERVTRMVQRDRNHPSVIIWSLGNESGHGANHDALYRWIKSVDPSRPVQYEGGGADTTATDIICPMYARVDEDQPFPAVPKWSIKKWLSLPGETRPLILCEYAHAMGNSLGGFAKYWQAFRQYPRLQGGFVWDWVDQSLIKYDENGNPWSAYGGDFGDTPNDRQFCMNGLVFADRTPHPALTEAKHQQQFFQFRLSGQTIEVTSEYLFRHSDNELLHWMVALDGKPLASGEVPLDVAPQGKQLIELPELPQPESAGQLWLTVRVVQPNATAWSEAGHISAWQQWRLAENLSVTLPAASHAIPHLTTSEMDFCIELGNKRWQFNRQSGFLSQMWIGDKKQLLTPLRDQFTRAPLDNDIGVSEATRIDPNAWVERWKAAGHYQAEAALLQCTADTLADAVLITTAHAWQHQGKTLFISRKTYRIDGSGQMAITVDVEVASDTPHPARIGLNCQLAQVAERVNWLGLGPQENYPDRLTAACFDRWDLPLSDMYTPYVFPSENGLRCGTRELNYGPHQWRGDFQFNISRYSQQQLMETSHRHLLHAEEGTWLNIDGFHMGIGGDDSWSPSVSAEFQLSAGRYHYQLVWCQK
Sequence of Potassium voltage-gated channel subfamily KQT member 2 (O88943 whole entry): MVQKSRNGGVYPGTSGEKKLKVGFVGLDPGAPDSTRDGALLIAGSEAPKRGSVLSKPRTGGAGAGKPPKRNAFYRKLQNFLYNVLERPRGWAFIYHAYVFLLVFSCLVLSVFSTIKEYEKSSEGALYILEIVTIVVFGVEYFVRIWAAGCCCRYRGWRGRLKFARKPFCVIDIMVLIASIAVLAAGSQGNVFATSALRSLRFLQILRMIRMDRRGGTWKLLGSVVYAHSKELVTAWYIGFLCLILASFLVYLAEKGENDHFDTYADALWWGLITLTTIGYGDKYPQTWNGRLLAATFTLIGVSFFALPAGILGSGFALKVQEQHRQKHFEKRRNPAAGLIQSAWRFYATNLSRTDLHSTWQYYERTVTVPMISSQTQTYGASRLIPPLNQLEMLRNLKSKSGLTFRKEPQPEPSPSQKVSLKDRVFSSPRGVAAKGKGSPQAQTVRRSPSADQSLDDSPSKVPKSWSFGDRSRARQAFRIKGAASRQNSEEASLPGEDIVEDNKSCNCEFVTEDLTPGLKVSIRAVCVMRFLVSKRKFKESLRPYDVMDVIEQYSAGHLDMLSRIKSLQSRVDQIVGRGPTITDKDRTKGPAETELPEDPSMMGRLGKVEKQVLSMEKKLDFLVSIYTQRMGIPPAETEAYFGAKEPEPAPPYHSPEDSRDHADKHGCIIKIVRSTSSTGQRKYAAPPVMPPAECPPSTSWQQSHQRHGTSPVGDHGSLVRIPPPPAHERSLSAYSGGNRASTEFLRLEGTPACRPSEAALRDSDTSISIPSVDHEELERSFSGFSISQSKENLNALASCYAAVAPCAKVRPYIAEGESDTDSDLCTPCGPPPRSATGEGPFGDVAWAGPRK
Sequence of Intestinal-type alkaline phosphatase (Mus musculus, UniProt P24822) (P24822 whole entry): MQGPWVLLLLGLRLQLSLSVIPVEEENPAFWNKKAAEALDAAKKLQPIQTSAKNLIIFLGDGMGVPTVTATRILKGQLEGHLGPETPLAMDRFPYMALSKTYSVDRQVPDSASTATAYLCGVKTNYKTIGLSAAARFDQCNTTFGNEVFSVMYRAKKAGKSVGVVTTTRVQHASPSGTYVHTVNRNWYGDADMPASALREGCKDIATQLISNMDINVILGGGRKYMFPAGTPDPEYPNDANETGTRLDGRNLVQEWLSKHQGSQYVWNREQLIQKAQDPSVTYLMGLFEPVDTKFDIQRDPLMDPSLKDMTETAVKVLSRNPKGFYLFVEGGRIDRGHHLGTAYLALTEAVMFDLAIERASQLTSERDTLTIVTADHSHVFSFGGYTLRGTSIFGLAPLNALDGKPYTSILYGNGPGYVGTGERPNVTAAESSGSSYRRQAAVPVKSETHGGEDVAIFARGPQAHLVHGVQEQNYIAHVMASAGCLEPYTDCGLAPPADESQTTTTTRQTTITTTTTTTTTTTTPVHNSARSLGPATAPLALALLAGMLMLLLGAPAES
Sequence of Voltage-dependent T-type calcium channel subunit alpha-1H (O95180 whole entry): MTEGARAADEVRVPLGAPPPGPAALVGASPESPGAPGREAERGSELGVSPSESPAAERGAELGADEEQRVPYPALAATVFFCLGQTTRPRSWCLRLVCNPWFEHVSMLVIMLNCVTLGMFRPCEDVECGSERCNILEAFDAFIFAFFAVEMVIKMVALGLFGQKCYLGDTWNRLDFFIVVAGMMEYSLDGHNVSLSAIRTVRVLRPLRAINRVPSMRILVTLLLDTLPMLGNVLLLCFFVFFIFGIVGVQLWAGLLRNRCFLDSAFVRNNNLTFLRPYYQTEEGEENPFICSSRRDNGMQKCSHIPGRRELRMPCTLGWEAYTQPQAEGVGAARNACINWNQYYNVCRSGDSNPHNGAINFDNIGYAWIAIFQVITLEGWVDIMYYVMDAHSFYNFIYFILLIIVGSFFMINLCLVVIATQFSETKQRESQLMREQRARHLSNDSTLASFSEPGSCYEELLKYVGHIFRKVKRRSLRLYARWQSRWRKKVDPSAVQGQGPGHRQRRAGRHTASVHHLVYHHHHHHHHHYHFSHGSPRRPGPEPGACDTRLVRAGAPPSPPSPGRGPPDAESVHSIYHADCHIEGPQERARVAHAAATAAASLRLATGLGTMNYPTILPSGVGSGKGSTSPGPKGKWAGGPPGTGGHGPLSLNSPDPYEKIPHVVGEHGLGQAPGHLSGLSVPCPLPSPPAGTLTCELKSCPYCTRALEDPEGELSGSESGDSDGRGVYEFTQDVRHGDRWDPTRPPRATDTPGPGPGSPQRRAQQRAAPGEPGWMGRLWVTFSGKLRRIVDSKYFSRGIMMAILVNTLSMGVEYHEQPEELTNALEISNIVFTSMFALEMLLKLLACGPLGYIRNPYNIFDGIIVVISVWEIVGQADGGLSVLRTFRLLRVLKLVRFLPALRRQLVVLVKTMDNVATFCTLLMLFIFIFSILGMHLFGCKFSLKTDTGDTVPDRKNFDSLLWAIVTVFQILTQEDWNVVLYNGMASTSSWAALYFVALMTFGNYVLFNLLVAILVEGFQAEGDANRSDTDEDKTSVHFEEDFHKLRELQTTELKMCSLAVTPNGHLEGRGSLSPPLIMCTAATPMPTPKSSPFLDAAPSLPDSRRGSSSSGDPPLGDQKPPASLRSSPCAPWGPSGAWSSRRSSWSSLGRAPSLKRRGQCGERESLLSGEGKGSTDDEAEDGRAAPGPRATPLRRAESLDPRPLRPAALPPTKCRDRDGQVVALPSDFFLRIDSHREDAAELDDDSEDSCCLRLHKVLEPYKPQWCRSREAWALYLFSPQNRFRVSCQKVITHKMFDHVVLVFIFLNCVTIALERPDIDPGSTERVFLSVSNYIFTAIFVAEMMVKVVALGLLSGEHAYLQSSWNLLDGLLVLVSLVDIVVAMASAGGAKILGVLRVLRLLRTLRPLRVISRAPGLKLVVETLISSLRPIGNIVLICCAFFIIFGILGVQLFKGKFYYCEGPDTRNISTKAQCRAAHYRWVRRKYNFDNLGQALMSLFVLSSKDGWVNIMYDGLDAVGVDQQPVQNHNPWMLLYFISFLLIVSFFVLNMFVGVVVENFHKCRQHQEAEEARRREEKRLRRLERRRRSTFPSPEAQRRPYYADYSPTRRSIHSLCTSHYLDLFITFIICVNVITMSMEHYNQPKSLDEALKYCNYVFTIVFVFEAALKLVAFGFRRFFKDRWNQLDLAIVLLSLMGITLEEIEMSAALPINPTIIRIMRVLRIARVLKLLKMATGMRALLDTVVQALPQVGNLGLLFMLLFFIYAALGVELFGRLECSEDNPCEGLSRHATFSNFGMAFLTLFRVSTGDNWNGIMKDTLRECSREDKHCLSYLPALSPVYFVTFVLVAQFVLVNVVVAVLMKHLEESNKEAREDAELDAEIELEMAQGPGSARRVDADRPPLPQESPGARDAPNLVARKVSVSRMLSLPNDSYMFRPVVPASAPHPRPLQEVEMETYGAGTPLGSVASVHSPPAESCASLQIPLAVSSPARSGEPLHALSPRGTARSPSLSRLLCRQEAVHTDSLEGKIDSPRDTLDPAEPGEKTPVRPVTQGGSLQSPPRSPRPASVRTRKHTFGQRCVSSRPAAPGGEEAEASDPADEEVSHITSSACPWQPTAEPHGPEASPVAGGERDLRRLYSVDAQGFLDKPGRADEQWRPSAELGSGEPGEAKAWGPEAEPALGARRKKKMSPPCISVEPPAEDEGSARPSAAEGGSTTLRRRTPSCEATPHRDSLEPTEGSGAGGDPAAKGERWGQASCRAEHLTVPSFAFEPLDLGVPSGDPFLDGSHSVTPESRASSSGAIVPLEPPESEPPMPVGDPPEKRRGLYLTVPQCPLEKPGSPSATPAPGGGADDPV
Sequence of Phospholipase A2 (P04054 whole entry): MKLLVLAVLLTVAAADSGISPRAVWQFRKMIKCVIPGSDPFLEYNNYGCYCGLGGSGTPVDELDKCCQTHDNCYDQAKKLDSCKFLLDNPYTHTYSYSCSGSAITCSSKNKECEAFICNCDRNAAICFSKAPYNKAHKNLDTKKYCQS

Cc1cc(C=C2C(=O)c3ccccc3C2=O)c(C)n1-c1ccccc1
EC50 [1]: > 7.94 µM (active) | IC50 [2]: 11 µM (active) | AC50 [3]: 3.78 µM (active) | IC50 [4]: 6.96 µM (active) | AC50 [5]: > 11 µM (active) | AC50 [6]: > 11 µM (active)

O=C(NCCNCCO)C1(C(F)(F)F)C/C(=C\CCO)CCCO1 (stereo unspecified)
IC50 [7]: > 80 µM (inactive) | IC50 [8]: > 80 µM (inactive)

Cc1ccc(NC(=O)C2CC3CCC2C3)c(C)c1 (stereo unspecified)
EC50 [9]: 0.22 µM (active)

CSc1ccc(-c2nc(CSCC(=O)NC3CC3)c(C)o2)cc1
IC50 [10]: > 80 µM (inactive) | IC50 [11]: > 80 µM (inactive) | IC50 [12]: 49.7 µM (inactive) | IC50 [13]: > 80 µM (inactive)

O=C(NC1CCC2CN(CC3CCCC3)CC21)c1cc(Cl)cc(Cl)c1 (stereo unspecified)
EC50 [14]: 6.4 µM (active)

C=CCO/C(O)=C1\C(C)=NC(SCC(=O)Nc2nccs2)=C(C#N)C1c1ccc(Cl)cc1 (stereo unspecified)
EC50 [15]: > 59.6 µM (inactive) | EC50 [16]: > 59.6 µM (inactive)

O=C(CSc1cccc2cccnc12)Nc1ccc(S(=O)(=O)N2CCOCC2)cc1
EC50 [17]: 1.58 µM (active) | EC50 [18]: 7.88 µM (active) | IC50 [19]: > 66.6 µM (inactive) | IC50 [20]: 11 µM (active)

O=C(Nc1ccc(Cl)cc1)NC1CCCCC1Cc1ccco1 (stereo unspecified)
IC50 [21]: 2.69 µM (not active) | IC50 [22]: 12.2 µM (active) | IC50 [23]: > 100 µM (inactive) | IC50 [24]: > 100 µM (inactive)

COc1cc(-c2noc(C)c2C#Cc2ccc(N)cc2)cc(OC)c1OC
AC50 [25]: 0.219 µM (active) | AC50 [26]: 8 µM (inconclusive)
